Like-named read-outs stand apart in the source and are kept apart here.
What was measured:
V600E mutated B-RAF = V600E mutated B-RAF (Homo sapiens, UniProt P15056, V600E); assay: In vitro assay for inhibition of mutant B-RAF kinase (recombinant V600E B-RAF, MEK (K97R) substrate); format: biochemical; conditions: 10 nM recombinant V600E B-RAF, 1 μM MEK (K97R) substrate
Method: (§1) The ability of compounds described herein to inhibit RAF kinase activity was determined from biochemical kinase assays using recombinant RAF proteins as known in the art.
(§2) Solutions of varying concentrations of test compounds or vehicle were added to 10 nM recombinant wild-type B-RAF or V600E mutated B-RAF proteins incubated in the presence of different concentrations of ATP and 1 μM MEK (K97R) as substrate, as previously described (Wilhelm, S. M., et al., Cancer Res., 64: 7099-7109, 2004; Mason, C. S., et al., EMBO J. 18: 2137-2148, 1999; Marais, R., et al., J. Biol. Chem., 272: 4378-4383, 1997). At least triplicate determinations for each individual test compound concentration were made and data plotted as mean±standard deviation relative to the control vehicle.

wild-type B-RAF = wild-type B-RAF (Homo sapiens, UniProt P15056); assay: In vitro assay for inhibition of B-RAF kinase (recombinant wild-type B-RAF, MEK (K97R) substrate); format: biochemical; conditions: 10 nM recombinant wild-type B-RAF, 1 μM MEK (K97R) substrate; read-out: BRAF IC50
Chain of wild-type B-RAF (P15056 whole entry): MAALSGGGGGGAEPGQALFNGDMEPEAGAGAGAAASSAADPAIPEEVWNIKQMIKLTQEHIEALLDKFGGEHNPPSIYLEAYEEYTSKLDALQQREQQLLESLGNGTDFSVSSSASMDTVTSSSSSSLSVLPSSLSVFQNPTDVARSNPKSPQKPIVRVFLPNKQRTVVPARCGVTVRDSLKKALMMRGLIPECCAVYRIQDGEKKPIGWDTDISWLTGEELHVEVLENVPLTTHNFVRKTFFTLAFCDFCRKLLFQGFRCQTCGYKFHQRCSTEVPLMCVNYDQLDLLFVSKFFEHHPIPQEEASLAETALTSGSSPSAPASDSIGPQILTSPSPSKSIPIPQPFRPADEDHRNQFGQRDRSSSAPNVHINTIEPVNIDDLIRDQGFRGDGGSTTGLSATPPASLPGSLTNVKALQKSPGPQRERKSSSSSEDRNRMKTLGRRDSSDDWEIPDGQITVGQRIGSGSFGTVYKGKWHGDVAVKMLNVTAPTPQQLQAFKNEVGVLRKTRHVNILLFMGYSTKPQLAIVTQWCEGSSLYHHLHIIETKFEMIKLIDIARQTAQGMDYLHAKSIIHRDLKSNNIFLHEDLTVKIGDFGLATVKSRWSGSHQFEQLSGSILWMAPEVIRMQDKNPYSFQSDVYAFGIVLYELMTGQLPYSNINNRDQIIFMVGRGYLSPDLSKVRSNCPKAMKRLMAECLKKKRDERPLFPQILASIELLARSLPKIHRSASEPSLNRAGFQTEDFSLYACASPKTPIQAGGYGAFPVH
Method: as §1
as §2, with “A-RAF, wild-type B-RAF,” for “B-RAF”, “wild-type C-RAF” for “V600E mutated B-RAF”
as §2

[1] = class symbols, read-out: IC50 (μM) V600E B-Raf

Chain of V600E mutated B-RAF (P15056 whole entry V600E): as the sequence (P15056 whole entry) above, with V600E counted along it

SMILES	IC50 (V600E mutated B-RAF; [1]) [µM]	IC50 (wild-type B-RAF) [nM]	IC50 (V600E mutated B-RAF; read-out: BRAF-V600E IC50) [µM]
O=C(O)c1cc(F)cc(-c2[nH]c(-c3ccccc3)nc2-c2ccncc2)c1 [Example 6, 3-fluoro-5-(2-phenyl-4-(pyridin-4-yl)-1H-imidazol-5-yl)benzoic acid]	0.1 to 1		
O=C(O)c1cc(-c2cn(-c3ccccc3)nc2-c2ccncc2)ccc1Cl [Example 15, 2-chloro-5-(1-phenyl-3-(pyridin-4-yl)-1H-pyrazol-4-yl)benzoic acid]	< 0.1		
O=C(O)c1cccc(-c2[nH]c(-c3ccccc3)nc2-c2ccncc2)c1F [Example 8, 2-fluoro-3-(2-phenyl-4-(pyridin-4-yl)-1H-imidazol-5-yl)benzoic acid]	0.1 to 1		
O=C(O)c1cccc(-c2nn(-c3ccccc3)cc2-c2ccncc2)c1 [Example 13, 3-(1-phenyl-4-(pyridin-4-yl)-1H-pyrazol-3-yl)benzoic acid]	0.1 to 1		
CCS(=O)(=O)Nc1cccc(-c2[nH]c(-c3ccccc3)nc2-c2ccncc2)c1 [Example 4, N-(3-(2-phenyl-4-(pyridin-4-yl)-1H-imidazol-5-yl)phenyl)ethanesulfonamide]	1 to 10		
O=C(O)c1cc(-c2[nH]c(-c3ccccc3)nc2-c2ccncc2)ccc1F [Example 7, 2-fluoro-5-(2-phenyl-4-(pyridin-4-yl)-1H-imidazol-5-yl)benzoic acid]	0.1 to 1		
Cc1ccc(-c2[nH]c(-c3ccccc3)nc2-c2ccncc2)cc1C(=O)O [Example 27, 2-methyl-5-(2-phenyl-4-(pyridin-4-yl)-1H-imidazol-5-yl)benzoic acid]	0.1 to 1		
O=C(O)c1ccc(F)c(-c2[nH]c(-c3ccccc3)nc2-c2ccncc2)c1 [Example 9, 4-fluoro-3-(2-phenyl-4-(pyridin-4-yl)-1H-imidazol-5-yl)benzoic acid]	1 to 10		
O=C(O)c1cccc(-c2[nH]c(-c3ccccc3)nc2-c2ccncc2)c1 [Example 1, 3-(2-phenyl-4-(pyridin-4-yl)-1H-imidazol-5-yl)benzoic acid]	0.1 to 1	3100	0.13

Continued, values first:

IC50 (V600E mutated B-RAF; [1]) [µM]	IC50 (wild-type B-RAF) [nM]	IC50 (V600E mutated B-RAF; read-out: BRAF-V600E IC50) [µM]	SMILES
< 0.1			O=C(O)c1cc(-c2[nH]c(-c3ccccc3)nc2-c2ccncc2)ccc1Cl [Example 10, 2-chloro-5-(2-phenyl-4-(pyridin-4-yl)-1H-imidazol-5-yl)benzoic acid]
0.1 to 1			O=C(O)c1cc(Cl)cc(-c2[nH]c(-c3ccccc3)nc2-c2ccncc2)c1 [Example 14, 3-chloro-5-(2-phenyl-4-(pyridin-4-yl)-1H-imidazol-5-yl)benzoic acid]
1 to 10			CCCS(=O)(=O)Nc1cccc(-c2[nH]c(-c3ccccc3)nc2-c2ccncc2)c1 [Example 5, N-(3-(2-phenyl-4-(pyridin-4-yl)-1H-imidazol-5-yl)phenyl)propane-1-sulfonamide]
0.1 to 1			O=C(O)c1cccc(-c2cn(-c3ccccc3)nc2-c2ccncc2)c1 [Example 3, 3-(1-phenyl-3-(pyridin-4-yl)-1H-pyrazol-4-yl)benzoic acid]
1 to 10			NC(=O)c1cccc(-c2[nH]c(-c3ccccc3)nc2-c2ccncc2)c1 [Example 21, 3-(2-phenyl-4-(pyridin-4-yl)-1H-imidazol-5-yl)benzamide]
	800		CS(=O)(=O)Nc1cccc(-c2[nH]c(-c3ccccc3)nc2-c2ccncc2)c1 [Example 2, N-(3-(2-phenyl-4-(pyridin-4-yl)-1H-imidazol-5-yl)phenyl)methanesulfonamide]
0.1 to 1			CS(=O)(=O)Nc1cc(-c2[nH]c(-c3ccccc3)nc2-c2ccncc2)ccc1Cl [Example 12, N-(2-chloro-5-(2-phenyl-4-(pyridin-4-yl)-1H-imidazol-5-yl)phenyl)methanesulfonamide]
